In data set [1] the target is T1, Solute carrier organic anion transporter family member 1B2 (Rattus norvegicus, UniProt Q9QZX8).
T1 sequence (Q9QZX8 whole entry): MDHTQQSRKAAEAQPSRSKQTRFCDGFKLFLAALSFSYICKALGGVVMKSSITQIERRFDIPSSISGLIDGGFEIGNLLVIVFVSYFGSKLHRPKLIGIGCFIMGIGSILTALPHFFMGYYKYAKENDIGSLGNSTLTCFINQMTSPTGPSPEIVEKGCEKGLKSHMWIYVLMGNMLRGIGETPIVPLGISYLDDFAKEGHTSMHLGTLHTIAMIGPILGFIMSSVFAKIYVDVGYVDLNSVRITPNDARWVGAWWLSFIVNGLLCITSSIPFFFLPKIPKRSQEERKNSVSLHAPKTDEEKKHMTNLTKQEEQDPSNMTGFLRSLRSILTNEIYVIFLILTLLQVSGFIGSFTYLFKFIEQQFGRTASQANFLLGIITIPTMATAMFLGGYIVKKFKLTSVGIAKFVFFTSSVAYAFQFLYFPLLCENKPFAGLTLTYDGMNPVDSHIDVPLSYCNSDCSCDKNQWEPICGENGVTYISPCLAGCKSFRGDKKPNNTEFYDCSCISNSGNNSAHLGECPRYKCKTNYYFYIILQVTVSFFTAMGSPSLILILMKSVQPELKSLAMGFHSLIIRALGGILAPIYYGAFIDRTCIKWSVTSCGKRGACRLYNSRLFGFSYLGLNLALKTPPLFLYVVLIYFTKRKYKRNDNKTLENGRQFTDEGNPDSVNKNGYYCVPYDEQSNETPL
As to the kind of experiment: (§1) TP_TRANSPORTER: uptake in Xenopus laevis oocytes. It counts as functional, cell-based. Particulars: oocyte.

Substrate in data set [2]: O=C1OC(c2ccc(O)c(S(=O)(=O)O)c2)(c2ccc(O)c(S(=O)(=O)O)c2)c2c(Br)c(Br)c(Br)c(Br)c21
Described as §1. It counts as functional, cell-based, Oocyte.

Take `N[C@@H](Cc1cc(I)c(Oc2cc(I)c(O)c(I)c2)c(I)c1)C(=O)O` [LEVOTHYROXINE]: in data set [1], the Activity entry was “substrate [+]”.

As for `N[C@@H](Cc1cc(I)c(Oc2ccc(O)c(I)c2)c(I)c1)C(=O)O` [LIOTHYRONINE], the Activity result in data set [1] is “substrate [+]”.

B1: Solute carrier organic anion transporter family member 1B2 (Rattus norvegicus) (protein)
chain: T1 sequence (Q9QZX8 whole entry)
For the molecule B1, in data set [2], the Km (as a rule, the substrate concentration at which the rate is half of its maximum) came out at 1.1 µM.

These data come from ChEMBL document CHEMBL2074153, “Identification of organic anion transporting polypeptide 4 (Oatp4) as a major full-length isoform of the liver-specific transporter-1 (rlst-1) in rat liver” (FEBS Lett, 2000).
